The text below walks through data of article PMC3267017, “Design, synthesis and in vitro evaluation of novel bivalent S-adenosylmethionine analogues” (Bioorganic & Medicinal Chemistry Letters, 2012).

Where two headings read alike, the source gives them in different places.

Assay [1] concerns the target T1, MetJ dimer–DNA complex (F-metC) (Escherichia coli, UniProt P0A8U6). Details: method as in PMID 19194573. The conditions noted are these: monovalent ligand 4, 2 mM; F-metC 10 nM; read-out: EC50, concentration of MetJ monomer required to promote half-maximal formation of its complex with the F-metC DNA; cited from earlier work.
Assay [2] addresses T1, MetJ dimer–DNA complex (F-metC). The assay can be described thus: Fluorescence anisotropy assay: MetJ titrated into F-metC DNA and ligand, MetJ dimer–DNA complex formation. The settings on record: for EC50: F-metC 10 nM, read-out: EC50, concentration of MetJ monomer required to promote half-maximal formation of its complex with the F-metC DNA. The assay is classed as binding. An excerpt: A fluorescence anisotropy-based binding assay was used to compare the relative ability of SAM analogues to promote MetJ dimer–DNA complex formation. Since SAM has low affinity for MetJ in the absence of DNA,[8,13] measurements were made in the presence of the DNA fragment F-metC, a fluorescently-labeled analogue of the shortest naturally occurring operator sequence, metC.[14] Titration of MetJ into a solution containing fixed concentrations of F-metC and ligand allows the change in anisotropy related to ternary complex formation to be measured (Fig. 5).
Figure 5 Cartoon illustrating the fluorescence anisotropy assay. The SAM molecules promote the formation of a SAM–F-metC–protein complex, with two MetJ dimers bound to the 18 base-pair DNA duplex.
The half-maximal concentration of MetJ, EC50, required to promote complex formation was determined for each ligand. […] The monovalent ligands 11 and 12 (2 mM) and the bivalent ligands 9 and 10 (1 mM) all promoted the formation of the MetJ–DNA complex (Table 1). […] The unquaternised bivalent ligands 9a–e (1 mM) promoted complex formation up to about threefold more effectively than the corresponding monovalent analogue 11. Similarly, the quaternised bivalent ligands 10a and 10b promoted, respectively, complex formation 2.4- and 3.6-fold more effectively than the quaternised monovalent analogue 12.
Analysis of novel SAM analogues binding to MetJ in the presence of operator DNA was carried out using fluorescence anisotropy. Fluorescence anisotropy experiments were performed on a Spex Fluorolog Tau spectrofluorometer (HORIBA Jobin Yvon) controlled by Datamax software. The excitation and emission wavelengths were set to 488 nm and 517 nm respectively. Slit widths were set to 5 nm and all experiments were carried out at 19 °C. The detector integration time was 5 seconds and three readings were taken of each sample to obtain an average anisotropy. Free anisotropy values were 0.051-0.060. Increase in fluorescence anisotropy was observed upon titration of MetJ into a solution of F-metC (10 nM) with and without ligand ([…]) in TK buffer pH 7.6 (50 mM Trizma hydrochloride pH 7.6, 100 mM KCl) with a total starting volume of 200 µL. […] The final DMSO concentration was 2% or less. After each addition, the sample was mixed with a pipette and left to equilibrate for five minutes before the fluorescence anisotropy readings were acquired. The intensity of linear and perpendicular light, compared to the excitation light is measured experimentally and the anisotropy was calculated using the following equation:‖
The data was fitted to a sigmoidal growth logistic model using the following equation: […]
Where A1 refers to the initial value, A2 refers to the final value, x0 refers to the centre and p is a value relating to the slope of the transition. Errors refer the standard deviation of three titration repeats. An arbitrary weighting function with the following equation was employed: […]

The mark [3] stands for this setting: quaternised ligands 2 mM, average of three titrations.

T1 sequence (P0A8U6 2-105, one chain of several): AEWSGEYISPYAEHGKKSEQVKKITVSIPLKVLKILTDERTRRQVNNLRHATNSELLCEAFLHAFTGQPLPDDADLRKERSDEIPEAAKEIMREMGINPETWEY

As for `CCCNC(=O)CCCN(C)C[C@H]1O[C@@H](n2cnc3c(N)ncnc32)[C@H](O)[C@@H]1O` [Compound 4], the EC50 in assay [1] was 1000 ± 100 nM.

`C[N+](C)(CCCC(=O)NCCCNC(=O)CCC[N+](C)(C)C[C@H]1O[C@@H](n2cnc3c(N)ncnc32)[C@H](O)[C@@H]1O)C[C@H]1O[C@@H](n2cnc3c(N)ncnc32)[C@H](O)[C@@H]1O.[I-].[I-]` [Compound 19b, N,N′-Dimethyl-N,N′-di-[5′-deoxy-5′-N-methyl-N′-(4-butyryl)-adenosine]-1,3-diaminopropane diiodide]: in assay [2] (quaternised ligands 2 mM), the “Fold-improvement over monovalent control 5” value is on record as 1.4-fold. Also, the EC50 in assay [2] (setting [3]) was determined as 108 ± 3 nM.

With `C[N+](C)(CCCC(=O)NCCCCCCNC(=O)CCC[N+](C)(C)C[C@H]1O[C@@H](n2cnc3c(N)ncnc32)[C@H](O)[C@@H]1O)C[C@H]1O[C@@H](n2cnc3c(N)ncnc32)[C@H](O)[C@@H]1O.[I-].[I-]` [Compound 19d, N,N′-Dimethyl-N,N′-di-[5′-deoxy-5′-N-methyl-N′-(4-butyryl)-adenosine]-1,6-diaminohexane diiodide], in assay [2] (quaternised ligands 2 mM), the “Fold-improvement over monovalent control 5” value is on record as 2.9-fold. In addition, in assay [2] (setting [3]), the EC50 turned out to be 51 ± 2 nM.

In the case of `C[S+](CC[C@H](N)C(=O)[O-])C[C@H]1O[C@@H](n2cnc3c(N)ncnc32)[C@H](O)[C@@H]1O` (stereo partly drawn) [SAM, 1, S-Adenosylmethionine], in assay [2] (SAM, ligand concentration not given, DMSO 2%), the EC50 worked out at 17.3 ± 0.3 nM.
